Test: xn = mol fraction of the nth substance listed
Details: 101.3 kPa, Liquid, Vibrating tube method

CCOS(=O)(=O)[O-].CCn1cc[n+](C)c1 [1-ethyl-3-methylimidazolium ethyl sulfate] + O
Details	mass density [kg/m3]
293.15 K, x2 = 0	1242.4
293.15 K, x2 = 0.0514	1241.4
293.15 K, x2 = 0.13	1239.8
293.15 K, x2 = 0.1783	1238.8
293.15 K, x2 = 0.2168	1237.8
293.15 K, x2 = 0.2642	1236.4
293.15 K, x2 = 0.3054	1235
293.15 K, x2 = 0.3568	1233
293.15 K, x2 = 0.4008	1231.2
293.15 K, x2 = 0.4613	1228.1
293.15 K, x2 = 0.5002	1225.9
293.15 K, x2 = 0.5584	1221.8
293.15 K, x2 = 0.6124	1217.1
293.15 K, x2 = 0.6698	1210.7
293.15 K, x2 = 0.7125	1204.3
293.15 K, x2 = 0.7635	1194.2
293.15 K, x2 = 0.8006	1184.2
293.15 K, x2 = 0.8497	1165.4
293.15 K, x2 = 0.8963	1139.3
298.15 K, x2 = 0	1239.4
298.15 K, x2 = 0.0514	1238.3
298.15 K, x2 = 0.13	1236.8
298.15 K, x2 = 0.1783	1235.7
298.15 K, x2 = 0.2168	1234.7
298.15 K, x2 = 0.2642	1233.3
298.15 K, x2 = 0.3054	1232
298.15 K, x2 = 0.3568	1230
298.15 K, x2 = 0.4008	1228
298.15 K, x2 = 0.4613	1225.2
298.15 K, x2 = 0.5002	1222.9
298.15 K, x2 = 0.5584	1218.8
298.15 K, x2 = 0.6124	1213.9
298.15 K, x2 = 0.6698	1207.4
298.15 K, x2 = 0.7125	1200.8
298.15 K, x2 = 0.7635	1190.4
298.15 K, x2 = 0.8006	1180.5
298.15 K, x2 = 0.8497	1162.1
298.15 K, x2 = 0.8963	1135.6
303.15 K, x2 = 0	1236.3
303.15 K, x2 = 0.0514	1235.2
303.15 K, x2 = 0.13	1233.6
303.15 K, x2 = 0.1783	1232.6
303.15 K, x2 = 0.2168	1231.5
303.15 K, x2 = 0.2642	1230.2
303.15 K, x2 = 0.3054	1228.8
303.15 K, x2 = 0.3568	1226.9
303.15 K, x2 = 0.4008	1225
303.15 K, x2 = 0.4613	1222
303.15 K, x2 = 0.5002	1219.7
303.15 K, x2 = 0.5584	1215.6
303.15 K, x2 = 0.6124	1210.8
303.15 K, x2 = 0.6698	1204.1
303.15 K, x2 = 0.7125	1197.6
303.15 K, x2 = 0.7635	1187.1
303.15 K, x2 = 0.8006	1177.2
303.15 K, x2 = 0.8497	1158.8
303.15 K, x2 = 0.8963	1132.8
308.15 K, x2 = 0	1233.3
308.15 K, x2 = 0.0514	1232.2
308.15 K, x2 = 0.13	1230.6
308.15 K, x2 = 0.1783	1229.5
308.15 K, x2 = 0.2168	1228.5
308.15 K, x2 = 0.2642	1227.1
308.15 K, x2 = 0.3054	1225.8
308.15 K, x2 = 0.3568	1223.9
308.15 K, x2 = 0.4008	1221.9
308.15 K, x2 = 0.4613	1218.9
308.15 K, x2 = 0.5002	1216.6
308.15 K, x2 = 0.5584	1212.4
308.15 K, x2 = 0.6124	1207.6
308.15 K, x2 = 0.6698	1200.9
308.15 K, x2 = 0.7125	1194.3
308.15 K, x2 = 0.7635	1184
308.15 K, x2 = 0.8006	1173.6
308.15 K, x2 = 0.8497	1155.5
308.15 K, x2 = 0.8963	1129
313.15 K, x2 = 0	1230.2
313.15 K, x2 = 0.0514	1229.1
313.15 K, x2 = 0.13	1227.4
313.15 K, x2 = 0.1783	1226.3
313.15 K, x2 = 0.2168	1225.4
313.15 K, x2 = 0.2642	1223.9
313.15 K, x2 = 0.3054	1222.6
313.15 K, x2 = 0.3568	1220.7
313.15 K, x2 = 0.4008	1218.7
313.15 K, x2 = 0.4613	1215.6
313.15 K, x2 = 0.5002	1213.4
313.15 K, x2 = 0.5584	1209.2
313.15 K, x2 = 0.6124	1204.4
313.15 K, x2 = 0.6698	1197.6
313.15 K, x2 = 0.7125	1190.9
313.15 K, x2 = 0.7635	1180.6
313.15 K, x2 = 0.8006	1170.3
313.15 K, x2 = 0.8497	1152.3
313.15 K, x2 = 0.8963	1126
318.15 K, x2 = 0	1227.2
318.15 K, x2 = 0.0514	1226.1
318.15 K, x2 = 0.13	1224.4
318.15 K, x2 = 0.1783	1223.3
318.15 K, x2 = 0.2168	1222.3
318.15 K, x2 = 0.2642	1220.8
318.15 K, x2 = 0.3054	1219.5
318.15 K, x2 = 0.3568	1217.6
318.15 K, x2 = 0.4008	1215.6
318.15 K, x2 = 0.4613	1212.4
318.15 K, x2 = 0.5002	1210.1
318.15 K, x2 = 0.5584	1206
318.15 K, x2 = 0.6124	1201.1
318.15 K, x2 = 0.6698	1194.3
318.15 K, x2 = 0.7125	1187.6
318.15 K, x2 = 0.7635	1177.2
318.15 K, x2 = 0.8006	1167
318.15 K, x2 = 0.8497	1148.9
318.15 K, x2 = 0.8963	1123
323.15 K, x2 = 0	1224.1
323.15 K, x2 = 0.0514	1223
323.15 K, x2 = 0.13	1221.3
323.15 K, x2 = 0.1783	1220.1
323.15 K, x2 = 0.2168	1219.1
323.15 K, x2 = 0.2642	1217.6
323.15 K, x2 = 0.3054	1216.3
323.15 K, x2 = 0.3568	1214.4
323.15 K, x2 = 0.4008	1212.4
323.15 K, x2 = 0.4613	1209.3
323.15 K, x2 = 0.5002	1206.9
323.15 K, x2 = 0.5584	1202.8
323.15 K, x2 = 0.6124	1197.8
323.15 K, x2 = 0.6698	1191
323.15 K, x2 = 0.7125	1184.3
323.15 K, x2 = 0.7635	1173.7
323.15 K, x2 = 0.8006	1163.5
323.15 K, x2 = 0.8497	1145.2
323.15 K, x2 = 0.8963	1119.6
328.15 K, x2 = 0	1221.1
328.15 K, x2 = 0.0514	1220
328.15 K, x2 = 0.13	1218.2
328.15 K, x2 = 0.1783	1216.9
328.15 K, x2 = 0.2168	1216
328.15 K, x2 = 0.2642	1214.6
328.15 K, x2 = 0.3054	1213.2
328.15 K, x2 = 0.3568	1211.2
328.15 K, x2 = 0.4008	1209.3
328.15 K, x2 = 0.4613	1206.1
328.15 K, x2 = 0.5002	1203.8
328.15 K, x2 = 0.5584	1199.6
328.15 K, x2 = 0.6124	1194.6
328.15 K, x2 = 0.6698	1187.7
328.15 K, x2 = 0.7125	1181
328.15 K, x2 = 0.7635	1170.2
328.15 K, x2 = 0.8006	1160
328.15 K, x2 = 0.8497	1141.6
328.15 K, x2 = 0.8963	1116.4
333.15 K, x2 = 0	1218.1
333.15 K, x2 = 0.0514	1216.9
333.15 K, x2 = 0.13	1215.2
333.15 K, x2 = 0.1783	1213.9
333.15 K, x2 = 0.2168	1212.9
333.15 K, x2 = 0.2642	1211.5
333.15 K, x2 = 0.3054	1210.1
333.15 K, x2 = 0.3568	1208.2
333.15 K, x2 = 0.4008	1206.2
333.15 K, x2 = 0.4613	1203.1
333.15 K, x2 = 0.5002	1200.7
333.15 K, x2 = 0.5584	1196.4
333.15 K, x2 = 0.6124	1191.4
333.15 K, x2 = 0.6698	1184.3
333.15 K, x2 = 0.7125	1177.5
333.15 K, x2 = 0.7635	1166.8
333.15 K, x2 = 0.8006	1156.6
333.15 K, x2 = 0.8497	1138.3
333.15 K, x2 = 0.8963	1112.9
338.15 K, x2 = 0	1215.1
338.15 K, x2 = 0.0514	1213.8
338.15 K, x2 = 0.13	1212.1
338.15 K, x2 = 0.1783	1210.9
338.15 K, x2 = 0.2168	1209.9
338.15 K, x2 = 0.2642	1208.4
338.15 K, x2 = 0.3054	1207
338.15 K, x2 = 0.3568	1205.1
338.15 K, x2 = 0.4008	1203.1
338.15 K, x2 = 0.4613	1200
338.15 K, x2 = 0.5002	1197.6
338.15 K, x2 = 0.5584	1193.2
338.15 K, x2 = 0.6124	1188.1
338.15 K, x2 = 0.6698	1180.9
338.15 K, x2 = 0.7125	1173.9
338.15 K, x2 = 0.7635	1163.5
338.15 K, x2 = 0.8006	1153.2
338.15 K, x2 = 0.8497	1134.9
338.15 K, x2 = 0.8963	1109.3
343.15 K, x2 = 0	1212
343.15 K, x2 = 0.0514	1210.7
343.15 K, x2 = 0.13	1208.9
343.15 K, x2 = 0.1783	1207.8
343.15 K, x2 = 0.2168	1206.7
343.15 K, x2 = 0.2642	1205.3
343.15 K, x2 = 0.3054	1203.9
343.15 K, x2 = 0.3568	1201.9
343.15 K, x2 = 0.4008	1200
343.15 K, x2 = 0.4613	1196.8
343.15 K, x2 = 0.5002	1194.3
343.15 K, x2 = 0.5584	1189.9
343.15 K, x2 = 0.6124	1184.7
343.15 K, x2 = 0.6698	1177.4
343.15 K, x2 = 0.7125	1170.4
343.15 K, x2 = 0.7635	1159.9
343.15 K, x2 = 0.8006	1149.5
343.15 K, x2 = 0.8497	1131.3
343.15 K, x2 = 0.8963	1106

CCn1cc[n+](C)c1.O=S(=O)([N-]S(=O)(=O)C(F)(F)F)C(F)(F)F + O
mass density [kg/m3]
Details	298.19 K	323.17 K
x2 = 0	1519.3	1494.7
x2 = 0.0209	1518.3	–
x2 = 0.0353	–	1493.1
x2 = 0.0499	1516.9	–
x2 = 0.0581	–	1492
x2 = 0.0631	1516.2	–
x2 = 0.0834	–	1490.6
x2 = 0.1164	–	1488.7
x2 = 0.1205	1513	–
x2 = 0.1608	1510.7	–
x2 = 0.1611	–	1486.2
x2 = 0.2032	1508.1	–
x2 = 0.2221	–	1482.4
x2 = 0.3025	1501.3	–

CCCC[N+]1(C)CCCC1.O=S(=O)([N-]S(=O)(=O)C(F)(F)F)C(F)(F)F + O
mass density [kg/m3]
Details	298.21 K	323.21 K
x2 = 0	1395.3	1373.6
x2 = 0.0298	–	1372.5
x2 = 0.0435	1394	–
x2 = 0.0654	1393.2	–
x2 = 0.0673	–	1371.1
x2 = 0.086	1392.3	–
x2 = 0.0913	1392.1	–
x2 = 0.1012	–	1369.9
x2 = 0.1262	1390.7	–
x2 = 0.1396	1390.1	–
x2 = 0.1406	–	1368.3
x2 = 0.1909	1388.1	–
x2 = 0.2033	–	1365.3
x2 = 0.2228	1387.1	–

CCCCn1cc[n+](C)c1.F[B-](F)(F)F [1-butyl-3-methylimidazolium tetrafluoroborate] + O
mass density [kg/m3]
Details	x2 = 0	x2 = 0.0895	x2 = 0.195	x2 = 0.308	x2 = 0.4996	x2 = 0.75	x2 = 0.899
298.15 K	1201.1	1198.3	1194.4	1189.3	1177.8	1147.9	1100.7
303.15 K	1197.4	1194.6	1190.9	1185.8	1173.9	1143.8	1097.2
333.15 K	1175.4	1172.8	1169	1163.9	1151.5	1121	1076.4
